Data published in the supplement of paper PMC10307832.

What was measured:
Assay in all cases: relative viability (nuclei count vs DMSO), 5 days (fraction); higher = more cells survive
[1] = compound: COc1cc2nc(N3CCCN(C)CC3)nc(NC3CCN(Cc4ccccc4)CC3)c2cc1OC + COc1cccc2cc(-c3nc([C@H]4CC[C@H](C(=O)O)CC4)n4ncnc(N)c34)[nH]c12 [OSI-027] (partner 0.5 µM)
In short: (§1)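 Relative viability equals treated-well nuclei counts divided by vehicle-well nuclei counts. Counts came from 4× images of lung cancer cell lines grown in 1536-well plates for 5 days after pin-tool dosing on the day after seeding. Dosing used one drug alone or a fixed anchor-drug dose plus five library-drug doses (not always all listed) in √10 steps, and values are medians of duplicate plates.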

[2] = compound: COc1cc2nc(N3CCCN(C)CC3)nc(NC3CCN(Cc4ccccc4)CC3)c2cc1OC + CS(=O)(=O)N1CCN(Cc2cc3nc(-c4cccc5[nH]ncc45)nc(N4CCOCC4)c3s2)CC1 [Pictilisib] (partner 1 µM)
In short: as §1

[3] = compound: Cc1cc([C@@H](C)Nc2ccccc2C(=O)O)c2nc(N3CCOCC3)cc(=O)n2c1 [AZD6482] + CS(=O)(=O)CCNCc1ccc(-c2ccc3ncnc(Nc4ccc(OCc5cccc(F)c5)c(Cl)c4)c3c2)o1 [Lapatinib] (partner 2 µM)
In short: as §1

[4] = compound: Cc1cc([C@@H](C)Nc2ccccc2C(=O)O)c2nc(N3CCOCC3)cc(=O)n2c1 [AZD6482] + Cc1nc(Nc2ncc(C(=O)Nc3c(C)cccc3Cl)s2)cc(N2CCN(CCO)CC2)n1 [Dasatinib] (partner 0.075 µM)
In short: as §1

Row | Cell Line | relative viability ([1]; first compound 0.2 µM) | relative viability ([1]; first compound 0.6325 µM) | relative viability ([1]; first compound 2 µM) | relative viability ([1]; first compound 6.325 µM) | relative viability ([2]; first compound 0.2 µM) | relative viability ([2]; first compound 0.6325 µM) | relative viability ([2]; first compound 2 µM) | relative viability ([2]; first compound 6.325 µM) | relative viability ([3]; first compound 0.253 µM) | relative viability ([3]; first compound 0.8 µM) | relative viability ([3]; first compound 2.53 µM) | relative viability ([3]; first compound 8 µM) | relative viability ([4]; first compound 0.253 µM) | relative viability ([4]; first compound 0.8 µM) | relative viability ([4]; first compound 2.53 µM) | relative viability ([4]; first compound 8 µM) | relative viability ([3]; first compound 0.08 µM) | relative viability ([4]; first compound 0.08 µM)
1 | SK-LU-1 | 0.358 | 0.302 | 0.36 | 0.179 | 0.702 | 0.604 | 0.559 | 0.401 | 0.76 | 0.849 | 0.687 | 0.513 | 0.165 | 0.18 | 0.152 | 0.165 | – | –
2 | NCI-H1975 | 0.785 | 0.693 | 0.744 | 0.776 | 0.276 | 0.313 | 0.332 | 0.248 | 0.802 | 0.814 | 0.626 | 0.581 | 0.327 | 0.389 | 0.289 | 0.235 | 0.727 | 0.312
3 | NCI-H1651 | 0.706 | 0.686 | 0.729 | 0.714 | 0.638 | 0.591 | 0.73 | 0.462 | 0.608 | 0.77 | 0.563 | 0.522 | 0.435 | 0.401 | 0.337 | 0.307 | 0.776 | 0.335
4 | LCLC-97TM1 | 0.569 | 0.621 | 0.674 | 0.537 | 0.186 | – | 0.149 | 0.139 | 1.01 | 1.28 | 0.271 | 0.462 | 0.711 | 0.869 | 0.611 | 0.486 | 1.04 | 0.87
5 | NCI-H727 | 0.511 | 0.68 | 0.535 | 0.565 | 0.391 | 0.394 | 0.32 | 0.346 | 0.843 | 0.951 | – | 0.667 | 0.41 | 0.41 | 0.266 | 0.395 | 0.659 | 0.401
6 | NCI-H1355 | 0.393 | 0.456 | 0.467 | 0.401 | 0.434 | 0.442 | 0.472 | 0.476 | 0.903 | 0.956 | 0.678 | 0.717 | 0.496 | 0.766 | 0.492 | 0.456 | 0.694 | 0.479
7 | HOP-62 | 0.812 | 0.845 | 0.826 | 0.819 | 0.586 | 0.688 | 0.555 | 0.496 | 0.856 | 1.32 | 0.827 | 1.1 | 0.528 | 0.572 | 0.299 | 0.349 | 1.06 | 0.428
8 | NCI-H2085 | 0.742 | 0.788 | 0.72 | 0.584 | 0.446 | 0.522 | 0.471 | 0.404 | 0.407 | 0.457 | 0.366 | 0.372 | 0.159 | 0.21 | 0.198 | 0.216 | 0.42 | 0.203
